Experiments:
K328M-Wee1-luciferase = assay: Wee1-luciferase assay (stabilization of K328M-Wee1-luciferase); format: cell-based; conditions: for % Inhibition, Wee1 Degradation: at 250 nM, reported relative to SR-1277 = 100%; for EC50: read-out: Wee1 Stabilization
Text: Steady-state level of K328M-Wee1-Luciferase (K328M-Wee1-Luc) was divided by Luciferase level (Luc) and plotted.
Similar assays have previously been described; PubChem AID 1807.

CK1δ = CK1δ (Homo sapiens, UniProt P48730); assay: In vitro kinase assay, CK1d, 32P-ATP filter binding (Reaction Biology Corporation); format: biochemical; conditions: footnote a: determined by Reaction Biology Corporation; read-out: IC50 CK1d
CK1δ, sequence (P48730 whole entry): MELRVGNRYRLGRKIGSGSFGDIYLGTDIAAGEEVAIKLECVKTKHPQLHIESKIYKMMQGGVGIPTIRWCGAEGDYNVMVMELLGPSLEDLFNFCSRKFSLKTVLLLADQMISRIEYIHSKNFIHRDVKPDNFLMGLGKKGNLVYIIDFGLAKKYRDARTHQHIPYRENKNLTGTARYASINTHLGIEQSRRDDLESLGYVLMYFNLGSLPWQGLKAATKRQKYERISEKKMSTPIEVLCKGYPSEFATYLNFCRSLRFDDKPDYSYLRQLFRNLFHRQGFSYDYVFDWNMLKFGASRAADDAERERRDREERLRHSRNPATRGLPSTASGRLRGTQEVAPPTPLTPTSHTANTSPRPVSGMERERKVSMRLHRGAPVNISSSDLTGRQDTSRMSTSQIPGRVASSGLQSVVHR
Method: (§1) Compounds were tested in 10-dose IC50 mode with 3-fold serial dilution starting at 50 μM. […] Reactions were carried out at 10 μM ATP. Average and standard deviations of reactions carried out in triplicate are shown.
(§2) In vitro kinase assay to detect CK1 or FLT3 activity: CK1 and FLT3 assays as well as complete kinase profile of 296 kinases was performed by Reaction Biology Corporation. For FLT3 20 μM final Abltide was used, sequence: [[…]]. For CK1 (all isoforms) 20 μM CK1 tide was used, sequence: [KRRRAL[pS]VASLPGL] in a standard kinase assay with ^32P-ATP and purified kinase. Incorporation of ^32P-ATP into the peptide was measured after a filter-binding assay. In-house CK1d inhibition assays were performed using a standard homogenous time-resolved fluorescence resonance energy transfer (TR-FRET) format in 50 mM Hepes, pH 7.0, 2.5 mM MgCl2, 0.1 mg/ml bovine serum albumin, 1 mM DL-dithiothreitol, 0.01% Triton X-100 (all from Sigma-Aldrich). Briefly, the CK1δ substrate (DEKTDDE, containing CK1 consensus sequence; 4 μL of a 500 nM stock solution) is labeled with a small Ulight acceptor dye (PerkinElmer). In the presence of 10 μL of 10 nM CK1δ, the Ulight peptide is phosphorylated at a single amino acid that is specifically recognized by a europium chelate (Eu)-labeled phosphospecific antibody. Assays were performed in the presence of 2 μL of compound at different (measured) concentrations, and reactions were stopped by adding 10 μL of 4 nM Eu-anti-p-Topo-IIa (PerkinElmer) in Lance Detection Buffer (Perkin Elmer). Upon excitation of the Eu-labeled antibody, energy is transferred to the acceptor dye resulting in the emission of detected light at 665 nm.

FLT3 = molecular target: T1, FLT3 (Homo sapiens, UniProt P36888); assay: In vitro kinase assay, FLT3 (Reaction Biology Corporation); format: biochemical; conditions: determined by Reaction Biology Corporation; read-out: IC50 FLT3
T1 construct: Reaction Biology Corporation (contract assay)
T1 sequence (P36888 27-993): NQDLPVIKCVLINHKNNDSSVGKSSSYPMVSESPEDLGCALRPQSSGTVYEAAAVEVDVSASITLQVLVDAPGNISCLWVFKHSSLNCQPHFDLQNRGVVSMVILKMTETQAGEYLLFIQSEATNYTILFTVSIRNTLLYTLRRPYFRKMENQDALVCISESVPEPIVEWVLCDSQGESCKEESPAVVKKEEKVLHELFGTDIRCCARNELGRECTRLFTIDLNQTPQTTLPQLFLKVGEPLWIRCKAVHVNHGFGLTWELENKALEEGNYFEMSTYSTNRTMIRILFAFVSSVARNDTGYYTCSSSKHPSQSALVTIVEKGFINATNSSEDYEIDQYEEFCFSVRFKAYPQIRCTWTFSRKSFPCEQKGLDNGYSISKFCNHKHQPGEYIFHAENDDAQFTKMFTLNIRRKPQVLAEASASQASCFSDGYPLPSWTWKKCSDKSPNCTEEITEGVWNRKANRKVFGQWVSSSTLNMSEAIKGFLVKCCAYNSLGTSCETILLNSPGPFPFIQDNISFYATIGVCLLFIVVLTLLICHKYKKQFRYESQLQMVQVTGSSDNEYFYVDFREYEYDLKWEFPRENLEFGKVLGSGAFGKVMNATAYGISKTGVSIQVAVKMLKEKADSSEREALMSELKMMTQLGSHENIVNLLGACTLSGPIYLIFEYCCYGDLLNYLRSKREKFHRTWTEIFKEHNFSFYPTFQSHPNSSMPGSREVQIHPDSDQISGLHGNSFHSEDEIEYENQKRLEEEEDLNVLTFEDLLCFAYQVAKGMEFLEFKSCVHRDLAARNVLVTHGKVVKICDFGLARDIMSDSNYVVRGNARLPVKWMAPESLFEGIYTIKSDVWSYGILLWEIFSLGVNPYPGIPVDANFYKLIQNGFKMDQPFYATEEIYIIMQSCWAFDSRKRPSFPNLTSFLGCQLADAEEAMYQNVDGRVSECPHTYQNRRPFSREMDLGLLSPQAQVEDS
Method: as §1, §2

SMILES | % Inhibition, Wee1 Degradation (K328M-Wee1-luciferase) | EC50 (K328M-Wee1-luciferase) | IC50 (CK1δ) | IC50 (FLT3)
Clc1ccc2[nH]c(CNc3nc(N4CCOCC4)nc4c3ncn4-c3ccsc3)nc2c1 [SR-1274] | 101.2% | 164 nM | 105 nM | 301 nM
c1ccc2[nH]c(CNc3nc(N4CCNCC4)nc4c3ncn4-c3ccsc3)nc2c1 [SR-1292] | 14.5% |  | 3 nM | 16 nM
c1ccc2cc3[nH]c(CNc4nc(N5CCOCC5)nc5c4ncn5-c4ccsc4)nc3cc2c1 [SR-1280] | 48.3% |  | 129 nM | 975 nM
CC(C)n1cnc2c(NCc3nc4c([N+](=O)[O-])cccc4[nH]3)nc(N3CCOCC3)nc21 [SR-1284] | 111.2% | 201 nM | 815 nM | 28000 nM
FC(F)(F)c1cccc2[nH]c(CNc3nc(N4CCOCC4)nc4c3ncn4-c3ccsc3)nc12 [SR-1272] | 10.8% |  | 128 nM | 262 nM
Clc1ccc2[nH]c(CNc3nc(N4CCOCC4)nc4c3ncn4-c3ccoc3)nc2c1 [SR-2850] |  |  | 23 nM | 129 nM
COc1ccc2[nH]c(CNc3nc(N4CCOCC4)nc4c3ncn4-c3ccsc3)nc2c1 [SR-1279] | 79.5% |  | 17 nM | 14 nM
Cn1c(CNc2nc(N3CCOCC3)nc3c2ncn3-c2ccsc2)nc2ccccc21 [SR-2001] | 1.7% |  | 22 nM | 125 nM
COc1ccc2[nH]c(CNc3nc(N4CCN(C)CC4)nc4c3ncn4-c3ccoc3)nc2c1 [SR-2848] |  |  | 29 nM | 298 nM
CN1CCN(c2nc(NCc3nc4cc(F)ccc4[nH]3)c3ncn(-c4ccoc4)c3n2)CC1 [SR-2866] |  |  | 20 nM | 216 nM
CN1CCN(c2nc(NCc3nc4ccccc4[nH]3)c3ncn(-c4ccsc4)c3n2)CC1 [SR-1294] | 14.1% |  | 11 nM | 68 nM
FC(F)(F)c1cc(Br)c2nc(CNc3nc(N4CCOCC4)nc4c3ncn4-c3ccsc3)[nH]c2c1 [SR-1285] | 13.4% |  | 522 nM | 4740 nM
Fc1ccc2[nH]c(CNc3nc(N4CCOCC4)nc4c3ncn4-c3ccsc3)nc2c1 [SR-1275] | 81.4% |  | 50 nM | 79 nM

— patent US9493464B2, “Wee1 degradation inhibitors” (The Scripps Research Institute, priority 2012, dated 2016)
